The structures appear in SMILES notation.

This test deals with T1, human MR (Homo sapiens, UniProt P08235).
T1 construct: The full length human MR gene is cloned from a human kidney or human brain cDNA library; made in house; host or cells: Sf9 insect cells (baculovirus, pAcHLT transfer vector)
T1 sequence (P08235 1-984): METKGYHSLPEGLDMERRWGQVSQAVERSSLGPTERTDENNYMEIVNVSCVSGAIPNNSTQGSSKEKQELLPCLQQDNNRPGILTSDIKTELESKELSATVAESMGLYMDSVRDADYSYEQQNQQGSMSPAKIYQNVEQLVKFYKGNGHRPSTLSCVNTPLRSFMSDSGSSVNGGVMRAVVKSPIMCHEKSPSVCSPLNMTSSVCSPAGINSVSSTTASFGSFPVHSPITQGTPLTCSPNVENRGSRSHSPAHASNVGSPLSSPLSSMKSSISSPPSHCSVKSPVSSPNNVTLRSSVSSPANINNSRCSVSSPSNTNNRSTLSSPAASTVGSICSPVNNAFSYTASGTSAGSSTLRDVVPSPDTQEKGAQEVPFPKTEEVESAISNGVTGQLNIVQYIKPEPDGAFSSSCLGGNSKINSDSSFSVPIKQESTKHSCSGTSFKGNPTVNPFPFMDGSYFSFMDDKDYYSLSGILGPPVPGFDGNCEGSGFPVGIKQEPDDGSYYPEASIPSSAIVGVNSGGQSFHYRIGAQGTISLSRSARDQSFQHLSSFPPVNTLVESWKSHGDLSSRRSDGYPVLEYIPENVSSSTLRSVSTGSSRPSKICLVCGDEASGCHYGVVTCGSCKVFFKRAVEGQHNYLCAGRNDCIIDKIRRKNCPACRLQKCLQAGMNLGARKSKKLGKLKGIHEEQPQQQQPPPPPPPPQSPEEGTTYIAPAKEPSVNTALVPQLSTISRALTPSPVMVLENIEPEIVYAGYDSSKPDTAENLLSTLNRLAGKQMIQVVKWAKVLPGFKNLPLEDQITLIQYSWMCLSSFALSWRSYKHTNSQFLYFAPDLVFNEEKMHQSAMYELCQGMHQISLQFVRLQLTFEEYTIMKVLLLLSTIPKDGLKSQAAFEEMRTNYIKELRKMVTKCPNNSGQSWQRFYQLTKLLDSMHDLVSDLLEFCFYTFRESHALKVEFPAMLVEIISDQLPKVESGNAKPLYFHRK
The test can be described thus: Mineralocorticoid Receptor Binding Assay ([3H]-aldosterone displacement). The note with it: full length human MR expressed in Sf9 cells, 0.5 nM [3H]-aldosterone. The essentials: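 Full-length human MR expressed in Sf9 cells; lysate (20-25 μg protein) incubated with 0.5 nM [3H]-aldosterone and test compound in molybdate/Tris/phosphate/glycerol buffer pH 7.5, 16 h at 4 °C. Bound ligand measured by filtration and scintillation counting; IC50 converted to Ki via Cheng-Prusoff.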
The term Ki denotes a dissociation constant, usually derived from enzyme kinetics or from competition with a known ligand. Low values mean tighter binding, high ones weaker binding. As for `Cc1cc(C2(c3cc(C)c(O)c(C)c3)C(=O)N(CC3CC3)c3ccccc32)cc(C)c1O` [Example 105, 1-Cyclopropylmethyl-3,3-bis-(4-hydroxy-3,5-dimethyl-phenyl)-1,3-dihydro-indol-2-one], the Ki is at most 0.5 µM.

In turn, `Cc1cc(C2(c3cc(C)c(O)c(C)c3)C(=O)N(Cc3ccc(O)cc3)c3ccccc32)cc(C)c1O` [Example 88, 1-(4-Hydroxy-benzyl)-3,3-bis-(4-hydroxy-3,5-dimethyl-phenyl)-1,3-dihydro-indol-2-one] returned a Ki of at most 0.5 µM.

`Cc1cc(C2(c3cc(C)c(O)c(C)c3)C(=O)N(C3CCCC3)c3ccccc32)cc(C)c1O` [Example 114, 1-Cyclopentyl-3,3-bis-(4-hydroxy-3,5-dimethyl-phenyl)-1,3-dihydro-indol-2-one] yielded a Ki of at most 0.5 µM.

As to `Cc1cc(C2(c3cc(C)c(O)c(C)c3)C(=O)N(Cc3ccc(C(C)(C)C)cc3)c3ccccc32)cc(C)c1O` [Example 7, 1-(4-tert-Butyl-benzyl)-3,3-bis-(4-hydroxy-3,5-dimethyl-phenyl)-1,3-dihydro-indol-2-one], the inhibition constant (Ki) is at most 0.5 µM.

`COc1ccc(C(=O)CN2C(=O)C(c3cc(C)c(O)c(C)c3)(c3cc(C)c(O)c(C)c3)c3ccccc32)cc1` [Example 46, 3,3-Bis-(4-hydroxy-3,5-dimethyl-phenyl)-1-[2-(4-methoxy-phenyl)-2-oxo-ethyl]-1,3-dihydro-indol-2-one]: the Ki was at most 0.5 µM.

`COc1cccc(C(=O)CN2C(=O)C(c3cc(C)c(O)c(C)c3)(c3cc(C)c(O)c(C)c3)c3ccccc32)c1` [Example 45, 3,3-Bis-(4-hydroxy-3,5-dimethyl-phenyl)-1-[2-(3-methoxy-phenyl)-2-oxo-ethyl]-1,3-dihydro-indol-2-one]: the Ki was at most 0.5 µM.

The values are drawn from patent US7250442B2, “Dihydroindol-2-one derivatives as steroid hormone nuclear receptor modulators” (Eli Lilly and Company, priority 2003, dated 2007).
